Laboratory results reported in patent US20150126467A1, “USE OF ALGINATE OLIGOMERS TO ENHANCE THE EFFECTS OF ANTIFUNGAL AGENTS” (AlgiIPharma AS, priority 2011, published 2015).
≈ marks a conversion by molar mass, not a printed value.

How the values were obtained:
[1] = tested on: C. krusei 249/03(2) (ulceration); test: Standard MIC testing in RPMI medium (Example 3); type: cell-based, Candida krusei; details: 48 h
Description: Following retrieval from −80° C. storage, fungal colonies were grown on blood agar with 5% sheep blood and were used to inoculate tryptone soya broth (TSB) for overnight growth. […] Fungal cultures at 0.5 McFarland standard were diluted ten-fold in RPMI medium and 5 μl added to the media containing wells of the microtiter plates. Plates were wrapped in parafilm and incubated at 34° C. for 48 hours. MIC values were determined as the lowest concentration at which there was no visible growth.

[2] = tested on: various Candida species and strains; test: Robotic MIC assay, summary over all strains (Example 2); type: cell-based; details: all species and strains tested
Description: The robotic assay described in Example 1 was employed in this Example. Strains were grown in Mueller-Hinton broth (LAB114 from Lab M Limited) and MIC values (μg ml-1) were determined for each antifungal after incubation for 48 h in the presence of 0, 2, 6 and 10% OligoG CF-5/20 G-fragments. […] OligoG CF-5/20 G-fragments were provided by AlgiPharma AS, Norway.
Candida strains used were as follows: • C. albicans CCUG 39343 (strain from culture collection) • C. parapsillosis ATCC 22019T (strain from culture collection) • C. krusei 141/03 (candidosis) • C. krusei 249/03(2) (ulceration) • C. lusitaniae 994/01(2) (candidosis) • C. tropicalis 12 (vaginal) • C. tropicalis 75 (vaginal) • C. tropicalis 519468 (urinary) • C. tropicalis 544123 (urinary) • C. tropicalis 250/03 (candidosis) • C. tropicalis AG1 (oral) • C. tropicalis T2.2 (oral)

SMILES	Minimum Inhibitory Concentration (MIC) ([1]; 0% OligoG) [µg/mL]	Minimum Inhibitory Concentration (MIC) ([1]; 6% OligoG) [µg/mL]	Minimum Inhibitory Concentration (MIC) ([1]; 10% OligoG) [µg/mL]	MIC ([1]; Pichia kudriavzevii, 2% OligoG, read-out: Minimum Inhibitory Concentration (MIC)) [µg/mL]	effect of addition of OligoG CF-5/20 on MIC values [2]
OC(Cn1cncn1)(Cn1cncn1)c1ccc(F)cc1F [Fluconazole, fluconazole]	4	4	4	4 (≈ 13.1 µM)	–
C[C@@H]1[C@H](O)[C@@H](C)/C=C/C=C/CC/C=C/C=C/C=C/C=C/C(O[C@H]2O[C@H](C)[C@@H](O)[C@H](N)[C@@H]2O)CC2O[C@](O)(CC(O)C(O)CCC(O)CC(O)CC(O)CC(=O)O[C@H]1C)CC(O)C2C(=O)O (some centres unmarked) [Nystatin, nystatin]	–	–	–	–	reduced
